Test results from PubChem BioAssay AID720604 (Broad Institute, 2013).
Results filed as inconclusive are left out.

Test system: HUVEC viability, CellTiter-Glo ATP luminescence, 8-48 h
Experiment: cytotoxicity in primary human umbilical endothelium – cell-based, CellTiter-Glo ATP luminescence, 8/24/48 h, dry powder, cytotoxicity control for HRAS target identification, dose response (AID 720604)

Row | Structure (SMILES) | AC50 (measured here: 8 h treatment) [µM] | AC50 (measured here: 24 h treatment) [µM] | AC50 (measured here: 48 h treatment) [µM]
1 | COc1ccc(N(C(=O)CCl)C(C(=O)NCCc2ccccc2)c2cccs2)cc1Cl (stereo not given) | 25.4 | 5.53 | 5.1
2 | CC(C)(C)OC(=O)NCCOCCOCCOc1ccc(N(C(=O)CCl)C(C(=O)NCCc2ccccc2)c2cccs2)cc1Cl (stereo not given) |  | 7.15 | 7.2
